Experimental data published in patent US9708314B2, “Heterocyclic amide compound” (NISSAN CHEMICAL INDUSTRIES, LTD., priority 2013, dated 2017).

How the values were obtained:
Type in all cases: in vivo
[1] = test system: directly sowed Oryza sativa; test: Test Example 3: effect on crop by application to foliage (Wagner pot, water depth 0.1-0.5 cm); conditions: Nineteenth Table; application to foliage; application herbicide amount 320 g/ha
Outline: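 Seeds were sown in alluvial soil in Wagner pots, grown for 14 days at 25–30 °C, then sprayed uniformly on foliage with the emulsified compound diluted to a given rate per hectare. Injury was graded three weeks after treatment from 0 (≤5%) to 5 (≥90%).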

Lolium multiflorum Lam. = test: Test Example 4: herbicidal effect by application to foliage (diluvial soil, plastic box); conditions: 320 g/ha; for K (Lolium multiflorum Lam.) herbicidal effect grade: foliage application
Outline: (§1)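 Scores run from 0 (herbicidal ratio ≤5%) to 5 (≥90%, almost fully withered) and were assessed three weeks after foliar spraying. Seedlings had been raised for 14 days at 25-30° C in sterilized diluvial soil before treatment, with the emulsion diluted in water to the stated g/ha dose.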

Galium spurium = test: as above; conditions: 320 g/ha; for Q (Galium spurium) herbicidal effect grade: foliage application
Outline: as §1

Alopecurus myosuroides = test: as above; conditions: 320 g/ha; for J (Alopecurus myosuroides) herbicidal effect grade: foliage application
Outline: as §1

Avena fatua = test: as above; conditions: 320 g/ha; for I (Avena fatua) herbicidal effect grade: foliage application
Outline: as §1

Digitaria ciliaris = test: as above; conditions: 320 g/ha; for F (Digitaria ciliaris) herbicidal effect grade: foliage application
Outline: as §1

Apera spica-venti. = test: as above; conditions: 320 g/ha; for L (Apera spica-venti.) herbicidal effect grade: foliage application
Outline: as §1

[2] = test system: Echinochloa crus-galli var. crus-galli; test: as above; conditions: 320 g/ha; for H (Echinochloa crus-galli var. crus-galli) herbicidal effect grade: foliage application
Outline: as §1

Veronica persica = test: as above; conditions: 320 g/ha; for R (Veronica persica) herbicidal effect grade: foliage application
Outline: as §1

Chenopodium album = test: as above; conditions: 320 g/ha; for O (Chenopodium album) herbicidal effect grade: foliage application
Outline: as §1

Amaranthus retroflexus = test: as above; conditions: 320 g/ha; for N (Amaranthus retroflexus) herbicidal effect grade: foliage application
Outline: as §1

Stellaria media = test: as above; conditions: 320 g/ha; for P (Stellaria media) herbicidal effect grade: foliage application
Outline: as §1

Setaria viridis = test: as above; conditions: 320 g/ha; for G (Setaria viridis) herbicidal effect grade: foliage application
Outline: as §1

Abutilon theophrasti = test: as above; conditions: 320 g/ha; for M (Abutilon theophrasti) herbicidal effect grade: foliage application
Outline: as §1

[3] = test system: Beta vulgaris ssp. vulgaris; test: Test Example 4: effect on crop by application to foliage (diluvial soil, plastic box); conditions: 320 g/ha; for f (Beta vulgaris ssp. vulgaris) effect on crop grade: foliage application
Outline: as §1

Glycine max = test: as above; conditions: 320 g/ha; for c (Glycine max) effect on crop grade: foliage application
Outline: as §1

Zea mays = test: as above; conditions: 320 g/ha; for b (Zea mays) effect on crop grade: foliage application
Outline: as §1

Brassica campestris L. = test: as above; conditions: 320 g/ha; for g (Brassica campestris L.) effect on crop grade: foliage application
Outline: as §1

[4] = test system: directly sowed Oryza sativa; test: as above; conditions: 320 g/ha; for d (directly sowed Oryza sativa) effect on crop grade: foliage application
Outline: as §1

Triticum aestivum = test: as above; conditions: 320 g/ha; for e (Triticum aestivum) effect on crop grade: foliage application
Outline: as §1

Structure (SMILES) | b (effect on crop grade) [1] | K (Lolium multiflorum Lam.) herbicidal effect grade (Lolium multiflorum Lam.) | Q (Galium spurium) herbicidal effect grade (Galium spurium) | J (Alopecurus myosuroides) herbicidal effect grade (Alopecurus myosuroides) | I (Avena fatua) herbicidal effect grade (Avena fatua) | F (Digitaria ciliaris) herbicidal effect grade (Digitaria ciliaris) | L (Apera spica-venti.) herbicidal effect grade (Apera spica-venti.) | H (Echinochloa crus-galli var. crus-galli) herbicidal effect grade [2] | R (Veronica persica) herbicidal effect grade (Veronica persica) | O (Chenopodium album) herbicidal effect grade (Chenopodium album) | N (Amaranthus retroflexus) herbicidal effect grade (Amaranthus retroflexus) | P (Stellaria media) herbicidal effect grade (Stellaria media) | G (Setaria viridis) herbicidal effect grade (Setaria viridis) | M (Abutilon theophrasti) herbicidal effect grade (Abutilon theophrasti) | f (Beta vulgaris ssp. vulgaris) effect on crop grade [3] | c (Glycine max) effect on crop grade (Glycine max) | b (Zea mays) effect on crop grade (Zea mays) | g (Brassica campestris L.) effect on crop grade (Brassica campestris L.) | d (directly sowed Oryza sativa) effect on crop grade [4] | e (Triticum aestivum) effect on crop grade (Triticum aestivum) | also measured
Cn1nnnc1NC(=O)c1ccc(C(F)(F)F)n2c([S+](C)[O-])nnc12 (centres unmarked) [2-067] | 5 (Herbicidal ratio of 90% or more (almost completely withered)) | 4 (Herbicidal ratio of 70% or more and less than 90%) | 4 (Herbicidal ratio of 70% or more and less than 90%) | 4 (Herbicidal ratio of 70% or more and less than 90%) | 5 (Herbicidal ratio of 90% or more (almost completely withered)) | 5 (Herbicidal ratio of 90% or more (almost completely withered)) | 3 (Herbicidal ratio of 40% or more and less than 70%) | 5 (Herbicidal ratio of 90% or more (almost completely withered)) | 5 (Herbicidal ratio of 90% or more (almost completely withered)) | 5 (Herbicidal ratio of 90% or more (almost completely withered)) | 5 (Herbicidal ratio of 90% or more (almost completely withered)) | 5 (Herbicidal ratio of 90% or more (almost completely withered)) | 5 (Herbicidal ratio of 90% or more (almost completely withered)) | 5 (Herbicidal ratio of 90% or more (almost completely withered)) | 5 (Herbicidal ratio of 90% or more (almost completely withered)) | 4 (Herbicidal ratio of 70% or more and less than 90%) | 5 (Herbicidal ratio of 90% or more (almost completely withered)) | 5 (Herbicidal ratio of 90% or more (almost completely withered)) | 5 (Herbicidal ratio of 90% or more (almost completely withered)) | 4 (Herbicidal ratio of 70% or more and less than 90%) | 
CC(C)c1nc2c(C(=O)Nc3nnnn3C)ccc(C(F)(F)F)n2n1 [7-002] | 0 (Herbicidal ratio of 5% or less (almost no effect)) |  |  |  |  |  |  |  |  |  |  |  |  |  |  |  |  |  |  |  | herbicidal effect, K (Lolium multiflorum Lam.) (Lolium multiflorum Lam.; application to foliage): 0 (Herbicidal ratio of 5% or less (almost no effect)); herbicidal effect, Q (Galium spurium) (Galium spurium; application to foliage): 3 (Herbicidal ratio of 40% or more and less than 70%); herbicidal effect, J (Alopecurus myosuroides) (Alopecurus myosuroides; application to foliage): 0 (Herbicidal ratio of 5% or less (almost no effect)); herbicidal effect, I (Avena fatua) (Avena fatua; application to foliage): 1 (Herbicidal ratio of 5% or more and less than 20%); herbicidal effect, F (Digitaria ciliaris) (Digitaria ciliaris; application to foliage): 3 (Herbicidal ratio of 40% or more and less than 70%); herbicidal effect, L (Apera spica-venti.) (Apera spica-venti.; application to foliage): 0 (Herbicidal ratio of 5% or less (almost no effect)); herbicidal effect, H (Echinochloa crus-galli var. crus-galli) ([2]; application to foliage): 4 (Herbicidal ratio of 70% or more and less than 90%); herbicidal effect, R (Veronica persica) (Veronica persica; application to foliage): 3 (Herbicidal ratio of 40% or more and less than 70%); herbicidal effect, O (Chenopodium album) (Chenopodium album; application to foliage): 5 (Herbicidal ratio of 90% or more (almost completely withered)); herbicidal effect, N (Amaranthus retroflexus) (Amaranthus retroflexus; application to foliage): 4 (Herbicidal ratio of 70% or more and less than 90%); herbicidal effect, P (Stellaria media) (Stellaria media; application to foliage): 4 (Herbicidal ratio of 70% or more and less than 90%); herbicidal effect, G (Setaria viridis) (Setaria viridis; application to foliage): 2 (Herbicidal ratio of 20% or more and less than 40%); herbicidal effect, M (Abutilon theophrasti) (Abutilon theophrasti; application to foliage): 3 (Herbicidal ratio of 40% or more and less than 70%); effect on crop, f (Beta vulgaris ssp. vulgaris) ([3]; application to foliage): 4 (Herbicidal ratio of 70% or more and less than 90%); effect on crop, c (Glycine max) (Glycine max; application to foliage): 0 (Herbicidal ratio of 5% or less (almost no effect)); effect on crop, b (Zea mays) (Zea mays; application to foliage): 0 (Herbicidal ratio of 5% or less (almost no effect)); effect on crop, g (Brassica campestris L.) (Brassica campestris L.; application to foliage): 3 (Herbicidal ratio of 40% or more and less than 70%); effect on crop, d (directly sowed Oryza sativa) ([4]; application to foliage): 2 (Herbicidal ratio of 20% or more and less than 40%); effect on crop, e (Triticum aestivum) (Triticum aestivum; application to foliage): 0 (Herbicidal ratio of 5% or less (almost no effect))
CC(C)c1nnc2c(C(=O)Nc3nnnn3C)ccc(C(F)F)n12 [2-047] | 3 (Herbicidal ratio of 40% or more and less than 70%) | 1 (Herbicidal ratio of 5% or more and less than 20%) | 3 (Herbicidal ratio of 40% or more and less than 70%) | 1 (Herbicidal ratio of 5% or more and less than 20%) | 3 (Herbicidal ratio of 40% or more and less than 70%) | 5 (Herbicidal ratio of 90% or more (almost completely withered)) | 3 (Herbicidal ratio of 40% or more and less than 70%) | 5 (Herbicidal ratio of 90% or more (almost completely withered)) | 5 (Herbicidal ratio of 90% or more (almost completely withered)) | 5 (Herbicidal ratio of 90% or more (almost completely withered)) | 5 (Herbicidal ratio of 90% or more (almost completely withered)) | 4 (Herbicidal ratio of 70% or more and less than 90%) | 3 (Herbicidal ratio of 40% or more and less than 70%) | 5 (Herbicidal ratio of 90% or more (almost completely withered)) | 5 (Herbicidal ratio of 90% or more (almost completely withered)) | 0 (Herbicidal ratio of 5% or less (almost no effect)) | 3 (Herbicidal ratio of 40% or more and less than 70%) | 3 (Herbicidal ratio of 40% or more and less than 70%) | 3 (Herbicidal ratio of 40% or more and less than 70%) | 3 (Herbicidal ratio of 40% or more and less than 70%) | 
CCC[S+]([O-])c1nnc2c(C(=O)Nc3nnnn3C)ccc(C(F)(F)F)n12 (centres unmarked) [2-069] | 5 (Herbicidal ratio of 90% or more (almost completely withered)) | 3 (Herbicidal ratio of 40% or more and less than 70%) | 4 (Herbicidal ratio of 70% or more and less than 90%) | 3 (Herbicidal ratio of 40% or more and less than 70%) | 5 (Herbicidal ratio of 90% or more (almost completely withered)) | 5 (Herbicidal ratio of 90% or more (almost completely withered)) | 4 (Herbicidal ratio of 70% or more and less than 90%) | 5 (Herbicidal ratio of 90% or more (almost completely withered)) | 5 (Herbicidal ratio of 90% or more (almost completely withered)) | 5 (Herbicidal ratio of 90% or more (almost completely withered)) | 5 (Herbicidal ratio of 90% or more (almost completely withered)) | 5 (Herbicidal ratio of 90% or more (almost completely withered)) | 5 (Herbicidal ratio of 90% or more (almost completely withered)) | 5 (Herbicidal ratio of 90% or more (almost completely withered)) | 5 (Herbicidal ratio of 90% or more (almost completely withered)) | 4 (Herbicidal ratio of 70% or more and less than 90%) | 5 (Herbicidal ratio of 90% or more (almost completely withered)) | 5 (Herbicidal ratio of 90% or more (almost completely withered)) | 4 (Herbicidal ratio of 70% or more and less than 90%) | 3 (Herbicidal ratio of 40% or more and less than 70%) | 
